Laboratory results as given in patent US20240226228A1, “ANTIMICROBIAL PEPTOID HAVING IMPROVED SELECTIVITY AND ANTIMICROBIAL COMPOSITION COMPRISING SAME” (priority 2021, published 2024).
Converted amounts (≈) assume the structure as drawn. Read-outs that look alike come from different tables or passages of the source. Where a SMILES comes first, the peptide text is derived from it. [ ]: non-standard residue; d: D form. Gly(N(CH2)2(3-indolyl)) = O=C(O)CNCCc1c[nH]c2ccccc12; Gly(N-CH2CH2-imidazol-4-yl) = O=C(O)CNCCc1c[nH]cn1; Nspe = C[C@H](NCC(=O)O)c1ccccc1; Nlys = NCCCCNCC(=O)O

Tests used:
[1] = system: red blood cells; test: Hemolysis assay; type: cell-based, Sprague-Dawley mouse
Summary of the method: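 Peptoid is mixed with 10% (v/v) PBS-washed erythrocytes (male Sprague-Dawley […], 13 weeks) and held 1 h at 37 °C. Hemolysis is calculated from 540 nm absorbance of the supernatant, with PBS as 0% and Triton X-100 as 100%.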

[2] = system: Human lung cells (MRC-5); test: in vitro; conditions: for CC50: read-out: LC50 MRC-5, 24 hours incubation, concentration that causes 50% cell lethality
Procedure: (§1) Human lung cells (MRC-5) were purchased from the Korean Cell Line Bank, and human keratinocytes (HaCaT) were purchased from the AmorePacific R&D Center. All cells were grown in a Dulbecco's modified Eagle's medium containing 10% fetal bovine serum under conditions of 5% CO2 and 37° C. To confirm the effect of a peptoid on cell growth, 3-(4,5-dimethylthiazol-2-yl)-5-(3-carboxymethoxyphenyl)-2-(4-sulfophenyl)-2H-tetrazolium (MTS) cell assay was performed to determine cell viability. An aliquot (100 μL) of a batch including 1.3×10^4 MRC-5 cells/mL or 3×10^4 HaCaT cells/mL was dispensed into each well of a 96-well plate. The cells were grown at 37° C. in a 5% CO2 humid atmosphere and allowed to adhere for 24 hours. When the cells reached approximately 70% confluency, the medium was replaced with serial dilutions of the peptoid stock and incubated for 24 hours. 20 μL of a CellTiter 96 aqueous non-radioactive cell proliferation assay reagent (Promega, USA) including a tetrazolium compound was added to each well.
(§2) The contents in the plate were metabolized by incubating at 37° C. for 4 hours. An MTS-formazan product of viable cells was measured at 490 nm using a microplate reader, and cell viability (%) was calculated by Equation 2 below and compared with untreated cells.
(§3) Cell viability (%)=[A/(Acontrol)]×100 [Equation 2]
(§4) In Equation 2, A is the absorbance of a test well, and Acontrol is the average absorbance of a well containing untreated cells.
(§5) The term “nd” shown in Table 19 below is the abbreviation for not determined, and indicates a value that is too small or too large to be measured.

[3] = system: S. aureus ATCC 25923
Summary of the method: (§6)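 Cation-adjusted MHB2 cultures (18 h, subcultured 4 h) adjusted to 2×10^5–5×10^5 CFU/mL in medium with 0.02% BSA and 0.001% acetic acid.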

[4] = system: E. coli ATCC25922; conditions: for antimicrobial activity (in words): E. coli and S. aureus, compared to Peptoid 1, parent peptoid or TFA salt as stated
Summary of the method: as §6

[5] = HPLC to confirm peptoid decomposition after counter ion substitution; type: physicochemical; conditions: HPLC at 220 nm; HCl and AcOH
Procedure: FIGS. 76 to 83 are the HPLC results for Peptoids 1, 10, 11, 14, 15, 29, 32 and 37 of the present inventive concept to confirm the decomposition of the peptoids after counter ion substitution using (a) HCl and (b) AcOH.
Referring to FIGS. […], HPLC was performed for Peptoids 1, 10, 11, 14, 15, 29, 32 and 37 of the present inventive concept. Since the chloride (HCl) is a stronger acid than TFA, it can decompose acid-vulnerable peptoid compounds.

[6] = system: human keratinocytes (HaCaT); test: in vitro
Procedure: as §1, §2, §3, §4, §5

[7] = Table 18, TFA salt vs counter ion-substituted peptoids
[8] = Table 18, TFA salt vs counter ion-substituted (HCl, AcOH) peptoids
[9] = Tables 11-13, 24 hours at 37° C., maximum concentration 25 μM

Structure (SMILES) | MIC S. aureus ATCC 25923 [3, 8] | MIC E. coli ATCC25922 [4, 8] | peptoid decomposition after counter ion substitution (in words) [5] | MIC S. aureus ATCC 25923 [3, 9] | MIC E. coli ATCC25922 ([4]; ATCC25922) | antimicrobial activity (in words) [4] | MIC E. coli ATCC25922 [4, 9] | HC10 [1] | HC50 [1] | Hmax (100 μM) [1] | LC50 / animal cell toxicity, HaCaT (in words) [6] | other results
C[C@@H](c1ccccc1)N(CC(N)=O)C(=O)CN(C(=O)CN(CCCCN)C(=O)CN(C(=O)CN(C(=O)CN(CCCCN)C(=O)CN(C(=O)CN(C(=O)CN(CCCCN)C(=O)CN(C(=O)CN(C(=O)CNCCCCN)[C@@H](C)c1ccccc1)[C@@H](C)c1ccccc1)[C@@H](C)c1ccccc1)[C@@H](C)c1ccccc1)[C@@H](C)c1ccccc1)[C@@H](C)c1ccccc1)[C@@H](C)c1ccccc1 [Peptoid 1-1, reference compound] (H-[Nlys][Nspe][Nspe][Nlys][Nspe][Nspe][Nlys][Nspe][Nspe][Nlys][Nspe][Nspe]-NH2) | 1.6 µM | 6.3 µM |  |  |  |  |  |  |  |  |  | HC10 [1, 7]: 27.6 µM; HC50 [1, 7]: 83.3 µM; Hmax (100 μM) [1, 7]: 61.5 ± 0.9%; CC50 [2]: 11.8 µM
C[C@@H](c1ccccc1)N(CC(N)=O)C(=O)CN(C(=O)CN(CCCCN)C(=O)CN(C(=O)CN(C(=O)CN(CCCCN)C(=O)CN(C(=O)CN(C(=O)CN(CCCCN)C(=O)CN(C(=O)CN(C(=O)CNCCCCN)[C@@H](C)c1ccccc1)[C@@H](C)c1ccccc1)[C@@H](C)c1ccccc1)[C@@H](C)c1ccccc1)[C@@H](C)c1ccccc1)[C@@H](C)c1ccccc1)[C@@H](C)c1ccccc1 [Peptoid 1-2, reference compound] (H-[Nlys][Nspe][Nspe][Nlys][Nspe][Nspe][Nlys][Nspe][Nspe][Nlys][Nspe][Nspe]-NH2) | 3.1 µM | 12.5 µM |  |  |  |  |  |  |  |  |  | HC10 [1, 7]: 25.0 µM; HC50 [1, 7]: 78.6 µM; Hmax (100 μM) [1, 7]: 58.2 ± 1.7%; CC50 [2]: 8.6 µM
C[C@@H](c1ccccc1)N(CC(N)=O)C(=O)CN(C(=O)CN(CCCCN)C(=O)CN(C(=O)CN(C(=O)CN(CCCCN)C(=O)CN(C(=O)CN(C(=O)CN(CCCCN)C(=O)CN(CCc1c[nH]c2ccccc12)C(=O)CN(C(=O)CNCCCCN)[C@@H](C)c1ccccc1)[C@@H](C)c1ccccc1)[C@@H](C)c1ccccc1)[C@@H](C)c1ccccc1)[C@@H](C)c1ccccc1)[C@@H](C)c1ccccc1 [Peptoid 10, H-NLys-Nspe-NhTrp-NLys-Nspe-Nspe-NLys-Nspe-Nspe-NLys-Nspe-Nspe-NH2] | 0.8 µM |  | almost no peptoid decomposition occurred | 1.6 µM (≈ 2.97 µg/mL) | 3.1 µM (≈ 5.76 µg/mL) | antimicrobial activity was reduced | 3.1 µM (≈ 5.76 µg/mL) |  |  |  |  | 
C[C@@H](c1ccccc1)N(CC(N)=O)C(=O)CN(C(=O)CN(CCCCN)C(=O)CN(C(=O)CN(CCc1c[nH]c2ccccc12)C(=O)CN(CCCCN)C(=O)CN(CCc1c[nH]c2ccccc12)C(=O)CN(C(=O)CN(CCCCN)C(=O)CN(C(=O)CN(C(=O)CNCCCCN)[C@@H](C)c1ccccc1)[C@@H](C)c1ccccc1)[C@@H](C)c1ccccc1)[C@@H](C)c1ccccc1)[C@@H](C)c1ccccc1 [Peptoid 15, H-NLys-Nspe-Nspe-NLys-Nspe-NhTrp-NLys-NhTrp-Nspe-NLys-Nspe-Nspe-NH2] |  | 3.1 µM | almost no peptoid decomposition occurred | 1.6 µM (≈ 3.04 µg/mL) |  | antimicrobial activity was reduced | 6.3 µM (≈ 12 µg/mL) |  |  |  |  | MIC S. aureus ATCC 25923 ([3]; ATCC 25923): 1.6 µM (≈ 3.04 µg/mL)
C[C@@H](c1ccccc1)N(CC(=O)N(CCCCN)CC(=O)N(CCc1c[nH]c2ccccc12)CC(=O)N(CCc1c[nH]c2ccccc12)CC(N)=O)C(=O)CN(CCCCN)C(=O)CN(CCCCN)C(=O)CN(C(=O)CN(C(=O)CN(CCCCN)C(=O)CN(C(=O)CN(C(=O)CNCCCCN)[C@@H](C)c1ccccc1)[C@@H](C)c1ccccc1)[C@@H](C)c1ccccc1)[C@@H](C)c1ccccc1 [Peptoid 29-1] (H-[Nlys][Nspe][Nspe][Nlys][Nspe][Nspe][Nlys][Nlys][Nspe][Nlys][Gly(N(CH2)2(3-indolyl))][Gly(N(CH2)2(3-indolyl))]-NH2) | 12.5 µM | 12.5 µM |  |  |  |  |  | >100/>100 μM | >100/>100 μM | 4.3 ± 0.3% | LC50 values of the peptoids increase | LC50 / animal cell toxicity, MRC-5 (in words) [2]: LC50 values of the peptoids increase
C[C@@H](c1ccccc1)N(CC(=O)N(CCCCN)CC(=O)N(CCc1c[nH]c2ccccc12)CC(=O)N(CCc1c[nH]c2ccccc12)CC(N)=O)C(=O)CN(CCCCN)C(=O)CN(CCCCN)C(=O)CN(C(=O)CN(C(=O)CN(CCCCN)C(=O)CN(C(=O)CN(C(=O)CNCCCCN)[C@@H](C)c1ccccc1)[C@@H](C)c1ccccc1)[C@@H](C)c1ccccc1)[C@@H](C)c1ccccc1 [Peptoid 29-2] (H-[Nlys][Nspe][Nspe][Nlys][Nspe][Nspe][Nlys][Nlys][Nspe][Nlys][Gly(N(CH2)2(3-indolyl))][Gly(N(CH2)2(3-indolyl))]-NH2) | 12.5 µM | 6.3 µM |  |  |  |  |  | >100/>100 μM | >100/>100 μM | 5.2 ± 0.2% | LC50 values of the peptoids increase | LC50 / animal cell toxicity, MRC-5 (in words) [2]: LC50 values of the peptoids increase
C[C@@H](c1ccccc1)N(CC(N)=O)C(=O)CN(CCCCN)C(=O)CN(CCCCN)C(=O)CN(C(=O)CN(C(=O)CN(CCCCN)C(=O)CN(C(=O)CN(C(=O)CN(CCCCN)C(=O)CN(CCc1c[nH]c2ccccc12)C(=O)CN(CCc1c[nH]c2ccccc12)C(=O)CNCCCCN)[C@@H](C)c1ccccc1)[C@@H](C)c1ccccc1)[C@@H](C)c1ccccc1)[C@@H](C)c1ccccc1 [Peptoid 32-1] | 6.3 µM | 6.3 µM |  |  |  |  |  | >100/>100 μM | >100/>100 μM | 8.7 ± 0.6% | LC50 values of the peptoids increase | 
C[C@@H](c1ccccc1)N(CC(=O)N(CCCCN)CC(=O)N(CC(=O)N(CC(=O)N(CCCCN)CC(=O)N(CC(=O)N(CC(=O)N(CCCCN)CC(N)=O)[C@@H](C)c1ccccc1)[C@@H](C)c1ccccc1)[C@@H](C)c1ccccc1)[C@@H](C)c1ccccc1)C(=O)CN(C(=O)CN(CCCCN)C(=O)CN(CCc1c[nH]c2ccccc12)C(=O)CNCCc1c[nH]c2ccccc12)[C@@H](C)c1ccccc1 [Peptoid 37, H-NhTrp-NhTrp-NLys-Nspe-Nspe-NLys-Nspe-Nspe-NLys-Nspe-Nspe-NLys-NH2] (H-[Gly(N(CH2)2(3-indolyl))][Gly(N(CH2)2(3-indolyl))][Nlys][Nspe][Nspe][Nlys][Nspe][Nspe][Nlys][Nspe][Nspe][Nlys]-NH2) | 1.6 µM |  | almost no peptoid decomposition occurred | 1.6 µM (≈ 3.04 µg/mL) | 3.1 µM (≈ 5.88 µg/mL) | antimicrobial activity was reduced | 3.1 µM (≈ 5.88 µg/mL) |  |  |  |  | 
C[C@@H](c1ccccc1)N(CC(=O)N(CCCCN)CC(=O)N(CCc1c[nH]c2ccccc12)CC(=O)N(CCc1c[nH]c2ccccc12)CC(N)=O)C(=O)CN(CCCCN)C(=O)CN(CCCCN)C(=O)CN(C(=O)CN(C(=O)CN(CCCCN)C(=O)CN(C(=O)CN(C(=O)CNCCc1c[nH]cn1)[C@@H](C)c1ccccc1)[C@@H](C)c1ccccc1)[C@@H](C)c1ccccc1)[C@@H](C)c1ccccc1 [Peptoid 81] (H-[Gly(N-CH2CH2-imidazol-4-yl)][Nspe][Nspe][Nlys][Nspe][Nspe][Nlys][Nlys][Nspe][Nlys][Gly(N(CH2)2(3-indolyl))][Gly(N(CH2)2(3-indolyl))]-NH2) |  |  |  |  | 6.3 µM (≈ 11.9 µg/mL) |  |  |  |  | 5.7 ± 0.1 |  | HD10 [1]: >100.0/>100.0; HD50 [1]: >100.0/>100.0; MIC S. aureus ATCC 25923 ([3]; ATCC 25923): 6.3 µM (≈ 11.9 µg/mL)
